Several values for one entry are separate records, joined by “and”; a condition that tells them apart may be missing. Equal values may be shown once. Toxic doses and inconclusive results are not listed. Rule for the calls: active = survival T/C of 150% or more; inactive = T/C below 125% in these data.
System: CD2F1 mice, L1210 leukemia ip, survival T/C
Test: NCI In Vivo Anticancer Drug Screen. Data for tumor model L1210 Leukemia (intraperitoneal) in CD2F1 (CDF1) mice
Settings: higher = longer survival
Procedure, shortened: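 Mice carrying a transplanted tumor received test compound or vehicle alone. The value is the measurement in the treated group divided by that in the vehicle-treated control group.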

[1] = endpoint: mean survival time, dose: 50.0 mg/kg/injection, schedule: Q01DX009 (ip), vehicle: saline with Tween-80
[2] = endpoint: mean survival time, dose: 100.0 mg/kg/injection, schedule: Q01DX009 (ip), vehicle: saline with Tween-80
[3] = endpoint: mean survival time, dose: 100.0 mg/kg/injection, schedule: Q04DX003 (ip), vehicle: saline with Tween-80
[4] = endpoint: mean survival time, dose: 100.0 mg/kg/injection, schedule: Q01DX001 (ip), vehicle: saline with Tween-80
[5] = endpoint: mean survival time, dose: 100.0 mg/kg/injection, schedule: Q04DX002 (ip), vehicle: saline with Tween-80
[6] = endpoint: mean survival time, dose: 200.0 mg/kg/injection, schedule: Q04DX002 (ip), vehicle: saline with Tween-80
[7] = endpoint: mean survival time, dose: 400.0 mg/kg/injection, schedule: Q04DX002 (ip), vehicle: saline with Tween-80
[8] = endpoint: mean survival time, dose: 200.0 mg/kg/injection, schedule: Q01DX009 (ip), vehicle: saline with Tween-80
[9] = endpoint: mean survival time, dose: 400.0 mg/kg/injection, schedule: Q01DX009 (ip), vehicle: saline with Tween-80
[10] = endpoint: mean survival time, dose: 200.0 mg/kg/injection, schedule: Q04DX003 (ip), vehicle: saline with Tween-80
[11] = endpoint: mean survival time, dose: 400.0 mg/kg/injection, schedule: Q04DX003 (ip), vehicle: saline with Tween-80

Measured: T/C

C=CCCCCCCCCC(=O)Nc1cc2c3c(c1)CCCN3CCC2
inactive: [1] 97 % of control | [2] 101 % of control | [3] 93 % of control

Cc1c2ccccc2c(CN(C)CC(=O)NCC(=O)NCC(=O)O)c2ccccc12
inactive: [4] 103 % of control | endpoint: mean survival time, dose: 200.0 mg/kg/injection, schedule: Q01DX001 (ip), vehicle: saline with Tween-80 92 % of control | endpoint: mean survival time, dose: 400.0 mg/kg/injection, schedule: Q01DX001 (ip), vehicle: saline with Tween-80 92 % of control

Nc1cc(Cl)c([N+](=O)[O-])cc1O
inactive: endpoint: mean survival time, dose: 50.0 mg/kg/injection, schedule: Q01DX009 (ip), vehicle: Klucel (hydroxypropylcellulose) (HPC) 91 % of control | endpoint: mean survival time, dose: 100.0 mg/kg/injection, schedule: Q01DX009 (ip), vehicle: Klucel (hydroxypropylcellulose) (HPC) 94 % of control | endpoint: mean survival time, dose: 200.0 mg/kg/injection, schedule: Q01DX009 (ip), vehicle: Klucel (hydroxypropylcellulose) (HPC) 94 % of control

OCC1(CO)CCCC(CO)(CO)C1O
inactive: endpoint: mean survival time, dose: 100.0 mg/kg/injection, schedule: Q04DX002 (ip), vehicle: saline 94 % of control | endpoint: mean survival time, dose: 200.0 mg/kg/injection, schedule: Q04DX002 (ip), vehicle: saline 94 % of control | endpoint: mean survival time, dose: 400.0 mg/kg/injection, schedule: Q04DX002 (ip), vehicle: saline 94 % of control

Cc1cccc(C2=NCCN2)c1C
inactive: endpoint: mean survival time, dose: 5.0 mg/kg/injection, schedule: Q01DX001 (ip), vehicle: saline with Tween-80 95 % of control | endpoint: mean survival time, dose: 10.0 mg/kg/injection, schedule: Q01DX001 (ip), vehicle: saline with Tween-80 97 % of control | endpoint: mean survival time, dose: 20.0 mg/kg/injection, schedule: Q01DX001 (ip), vehicle: saline with Tween-80 97 % of control

O=c1oc2ccccc2c2ccccc12
inactive: [5] 108 % of control | [6] 101 % of control | [7] 101 % of control

Cc1ncc(C[P+](c2ccccc2)(c2ccccc2)c2ccccc2)c(C)c1O
inactive: endpoint: mean survival time, dose: 75.0 mg/kg/injection, schedule: Q01DX001 (ip), vehicle: saline 102 % of control

COC(=O)C(Cl)C(Cl)c1ccccc1 (centres undefined)
inactive: [2] 100 % of control | [8] 105 % of control | [9] 101 % of control

COc1cc(C)ccc1C1=CCCCC1
inactive: endpoint: mean survival time, dose: 100.0 mg/kg/injection, schedule: Q04DX003 (ip), vehicle: saline 95 % of control | endpoint: mean survival time, dose: 200.0 mg/kg/injection, schedule: Q04DX003 (ip), vehicle: saline 95 % of control | endpoint: mean survival time, dose: 400.0 mg/kg/injection, schedule: Q04DX003 (ip), vehicle: saline 87 % of control

Cc1ccccc1NC(=O)Oc1c(C)cccc1C
inactive: [5] 97 % of control | [6] 101 % of control | [7] 101 % of control

O=[N+]([O-])c1ccc(N2CCOCC2)c2c1no[n+]2[O-]
inactive: endpoint: median survival time, dose: 12.5 mg/kg/injection, schedule: Q01DX009 (ip), vehicle: saline with Tween-80 117 % of control | endpoint: median survival time, dose: 25.0 mg/kg/injection, schedule: Q01DX009 (ip), vehicle: saline with Tween-80 112 % of control | endpoint: median survival time, dose: 50.0 mg/kg/injection, schedule: Q01DX009 (ip), vehicle: saline with Tween-80 108 % of control | endpoint: median survival time, dose: 100.0 mg/kg/injection, schedule: Q01DX009 (ip), vehicle: saline with Tween-80 91 % of control

O=C1C=C(N2CC2)C(=O)C=C1N1CC1
inactive: endpoint: mean survival time, dose: 0.12 mg/kg/injection, schedule: Q01DX Z (ip), vehicle: saline 120 % of control and 103 % of control | endpoint: mean survival time, dose: 0.25 mg/kg/injection, schedule: Q01DX Z (ip), vehicle: saline 119 % of control | endpoint: mean survival time, dose: 0.5 mg/kg/injection, schedule: Q01DX Z (ip), vehicle: saline 120 % of control | endpoint: mean survival time, dose: 1.0 mg/kg/injection, schedule: Q01DX Z (ip), vehicle: saline 91 % of control

CC1(C)N=C(N)N=C(N)N1c1ccc(CCCCc2cccc(S(=O)(=O)F)c2)c(Cl)c1
inactive: endpoint: mean survival time, dose: 2.5 mg/kg/injection, schedule: Q01DX009 (ip), vehicle: saline with Tween-80 98 % of control | endpoint: mean survival time, dose: 5.0 mg/kg/injection, schedule: Q01DX009 (ip), vehicle: saline with Tween-80 104 % of control | endpoint: mean survival time, dose: 6.25 mg/kg/injection, schedule: Q04DX003 (ip), vehicle: saline sonified 89 % of control | endpoint: mean survival time, dose: 10.0 mg/kg/injection, schedule: Q01DX009 (ip), vehicle: saline with Tween-80 103 % of control | endpoint: mean survival time, dose: 12.5 mg/kg/injection, schedule: Q04DX003 (ip), vehicle: saline sonified 93 % of control | endpoint: mean survival time, dose: 20.0 mg/kg/injection, schedule: Q01DX009 (ip), vehicle: saline with Tween-80 112 % of control | endpoint: mean survival time, dose: 25.0 mg/kg/injection, schedule: Q04DX003 (ip), vehicle: saline sonified 96 % of control

Nc1cccc(OCCOc2ccccc2[N+](=O)[O-])c1
inactive: endpoint: mean survival time, dose: 100.0 mg/kg/injection, schedule: Q01DX001 (ip), vehicle: Klucel (hydroxypropylcellulose) (HPC) 93 % of control | endpoint: mean survival time, dose: 200.0 mg/kg/injection, schedule: Q01DX001 (ip), vehicle: Klucel (hydroxypropylcellulose) (HPC) 90 % of control | endpoint: mean survival time, dose: 400.0 mg/kg/injection, schedule: Q01DX001 (ip), vehicle: Klucel (hydroxypropylcellulose) (HPC) 90 % of control

Cc1ccc(C(C#N)Nc2ccccc2)cc1 (centres undefined)
inactive: [2] 103 % of control | [3] 100 % of control | [8] 88 % of control | [10] 91 % of control | [9] 93 % of control | [11] 97 % of control

CC(CO)(CO)N(CCO)CCO
inactive: [3] 94 % of control | [10] 100 % of control | [11] 92 % of control

ClC1C2c3ccccc3C(C1Cl)[n+]1ccccc12 (centres undefined)
inactive: endpoint: mean survival time, dose: 12.5 mg/kg/injection, schedule: Q04DX003 (ip), vehicle: Klucel (hydroxypropylcellulose) (HPC) 93 % of control | endpoint: mean survival time, dose: 25.0 mg/kg/injection, schedule: Q04DX003 (ip), vehicle: Klucel (hydroxypropylcellulose) (HPC) 98 % of control

CC(=O)OC1CCC2(C)C3CCC4(C)C(O)CCC4C3CC(O)C2(O)C1 (centres undefined)
inactive: [3] 90 % of control | [10] 87 % of control | [11] 91 % of control

CCOC(=O)c1ccc(OC(=O)Nc2ccccc2OC)cc1
inactive: [2] 96 % of control | [3] 103 % of control | [8] 92 % of control | [10] 100 % of control | [9] 94 % of control | [11] 102 % of control

CCC(CC)CN1CCSC1=S
inactive: [2] 101 % of control | [8] 101 % of control | [9] 96 % of control

Clc1ccc(Oc2ccc(Cl)cc2)cc1
inactive: [1] 94 % of control | [2] 100 % of control | [8] 105 % of control

CN1C(=O)C(Cl)=C(Cl)C1=O
inactive: endpoint: mean survival time, dose: 1.56 mg/kg/injection, schedule: Q04DX003 (ip), vehicle: saline 103 % of control | endpoint: mean survival time, dose: 3.13 mg/kg/injection, schedule: Q04DX003 (ip), vehicle: saline 101 % of control | endpoint: mean survival time, dose: 6.25 mg/kg/injection, schedule: Q04DX003 (ip), vehicle: saline 101 % of control

CC(C)c1ccc(/C=C2/CCCCC2=O)cc1
inactive: endpoint: mean survival time, dose: 25.0 mg/kg/injection, schedule: Q01DX009 (ip), vehicle: saline with Tween-80 93 % of control | [1] 97 % of control | [2] 97 % of control

OC(COc1ccc(Cl)cc1)COc1ccc(Cl)cc1
inactive: endpoint: mean survival time, dose: 25.0 mg/kg/injection, schedule: Q01DX001 (ip), vehicle: saline with Tween-80 94 % of control | endpoint: mean survival time, dose: 50.0 mg/kg/injection, schedule: Q01DX001 (ip), vehicle: saline with Tween-80 94 % of control | [4] 105 % of control

CCOC(=O)Nc1cc(NCCCCc2ccccc2)c([N+](=O)[O-])c(N)n1
inactive: endpoint: mean survival time, dose: 12.5 mg/kg/injection, schedule: Q01DX001 (ip), vehicle: Klucel (hydroxypropylcellulose) (HPC) 97 % of control | endpoint: mean survival time, dose: 25.0 mg/kg/injection, schedule: Q01DX001 (ip), vehicle: Klucel (hydroxypropylcellulose) (HPC) 103 % of control | endpoint: mean survival time, dose: 50.0 mg/kg/injection, schedule: Q01DX001 (ip), vehicle: Klucel (hydroxypropylcellulose) (HPC) 89 % of control
